In ChEMBL document CHEMBL1201862, “PubChem BioAssay data set” (2004):
Activity calls are given as the source filed them. For most assays here, no stated cut-off is given here; in the data, actives have a measured EC50 and inactives only a lower limit.

How the values were obtained:
Streptokinase A = target: T1, Streptokinase A (Streptococcus pyogenes serotype M1, UniProt P10520); test: viability-normalized secreted streptokinase activity reduction – plasminogen activation absorbance, OD405, dose response (AID 1914); type: functional, Streptococcus pyogenes M1 GAS;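 further: secreted streptokinase activity via plasminogen activation per viability signal from cell pellet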
T1 sequence (P10520 whole entry): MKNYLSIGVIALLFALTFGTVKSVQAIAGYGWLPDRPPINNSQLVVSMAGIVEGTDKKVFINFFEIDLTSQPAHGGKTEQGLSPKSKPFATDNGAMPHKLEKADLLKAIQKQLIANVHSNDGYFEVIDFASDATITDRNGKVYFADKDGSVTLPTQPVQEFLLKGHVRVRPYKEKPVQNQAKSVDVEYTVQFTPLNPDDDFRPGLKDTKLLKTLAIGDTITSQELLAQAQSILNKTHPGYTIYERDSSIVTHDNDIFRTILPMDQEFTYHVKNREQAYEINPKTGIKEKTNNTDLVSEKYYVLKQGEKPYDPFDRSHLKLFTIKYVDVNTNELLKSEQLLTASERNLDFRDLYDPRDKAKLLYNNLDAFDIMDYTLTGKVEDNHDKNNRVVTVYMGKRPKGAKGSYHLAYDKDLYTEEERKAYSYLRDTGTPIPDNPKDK

Streptococcus = test: GAS UMAA2166 growth inhibition – luminescence, BacTiterGlo, counter-screen for streptokinase expression inhibitor project, dose response (AID 1915); type: functional, organism-based;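 further: potency for reduction of bacterial viability or growth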
[1] = fluconazole-exposed Candida albicans growth modulators – fluorescence, retest, confirmation (AID 2467); type: functional, cell-based
[2] = target: T2, Histone-lysine N-methyltransferase NSD2 (Homo sapiens, UniProt O96028); type: biochemical
T2 sequence (O96028 whole entry): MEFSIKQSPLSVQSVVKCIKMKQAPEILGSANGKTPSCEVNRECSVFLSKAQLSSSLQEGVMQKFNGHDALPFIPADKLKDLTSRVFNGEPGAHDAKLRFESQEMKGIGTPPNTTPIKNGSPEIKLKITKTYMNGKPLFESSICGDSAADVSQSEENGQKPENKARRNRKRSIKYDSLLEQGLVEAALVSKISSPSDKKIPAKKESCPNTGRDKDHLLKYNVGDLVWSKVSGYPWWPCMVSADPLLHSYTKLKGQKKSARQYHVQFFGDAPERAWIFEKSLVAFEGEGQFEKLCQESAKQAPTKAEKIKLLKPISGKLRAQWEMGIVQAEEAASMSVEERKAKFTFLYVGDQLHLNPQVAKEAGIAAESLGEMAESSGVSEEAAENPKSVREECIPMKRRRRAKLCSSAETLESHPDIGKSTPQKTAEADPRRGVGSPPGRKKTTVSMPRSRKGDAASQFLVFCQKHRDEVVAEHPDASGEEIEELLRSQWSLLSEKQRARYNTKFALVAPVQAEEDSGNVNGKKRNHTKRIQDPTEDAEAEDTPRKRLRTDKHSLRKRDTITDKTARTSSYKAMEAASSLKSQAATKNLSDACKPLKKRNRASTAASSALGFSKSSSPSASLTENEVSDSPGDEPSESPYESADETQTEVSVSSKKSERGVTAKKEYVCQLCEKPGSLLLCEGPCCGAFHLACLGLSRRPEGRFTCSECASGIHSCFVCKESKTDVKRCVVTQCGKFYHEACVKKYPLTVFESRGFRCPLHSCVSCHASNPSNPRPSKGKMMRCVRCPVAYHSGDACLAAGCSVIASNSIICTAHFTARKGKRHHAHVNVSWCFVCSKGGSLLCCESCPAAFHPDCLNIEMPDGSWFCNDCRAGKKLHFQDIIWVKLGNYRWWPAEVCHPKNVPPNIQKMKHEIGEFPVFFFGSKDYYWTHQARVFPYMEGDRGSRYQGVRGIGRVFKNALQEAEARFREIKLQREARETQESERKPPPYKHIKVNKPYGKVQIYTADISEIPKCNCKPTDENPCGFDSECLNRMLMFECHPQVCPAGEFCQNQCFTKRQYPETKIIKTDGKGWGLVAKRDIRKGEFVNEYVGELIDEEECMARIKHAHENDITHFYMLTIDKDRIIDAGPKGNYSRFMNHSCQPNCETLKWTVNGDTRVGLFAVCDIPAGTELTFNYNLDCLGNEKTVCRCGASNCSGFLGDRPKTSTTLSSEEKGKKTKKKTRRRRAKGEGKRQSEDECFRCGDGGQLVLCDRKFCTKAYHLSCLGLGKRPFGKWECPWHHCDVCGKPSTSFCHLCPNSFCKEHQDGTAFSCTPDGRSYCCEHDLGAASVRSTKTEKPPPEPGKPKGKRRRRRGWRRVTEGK

[3] = target: T3, Replicative DNA helicase DnaB (Mycobacterium tuberculosis, UniProt P9WMR3); test: DnaB intein splicing inhibitors, dose response, biochemical, cell-free fluorescence (AID 449749); type: functional
T3 sequence (P9WMR3 whole entry): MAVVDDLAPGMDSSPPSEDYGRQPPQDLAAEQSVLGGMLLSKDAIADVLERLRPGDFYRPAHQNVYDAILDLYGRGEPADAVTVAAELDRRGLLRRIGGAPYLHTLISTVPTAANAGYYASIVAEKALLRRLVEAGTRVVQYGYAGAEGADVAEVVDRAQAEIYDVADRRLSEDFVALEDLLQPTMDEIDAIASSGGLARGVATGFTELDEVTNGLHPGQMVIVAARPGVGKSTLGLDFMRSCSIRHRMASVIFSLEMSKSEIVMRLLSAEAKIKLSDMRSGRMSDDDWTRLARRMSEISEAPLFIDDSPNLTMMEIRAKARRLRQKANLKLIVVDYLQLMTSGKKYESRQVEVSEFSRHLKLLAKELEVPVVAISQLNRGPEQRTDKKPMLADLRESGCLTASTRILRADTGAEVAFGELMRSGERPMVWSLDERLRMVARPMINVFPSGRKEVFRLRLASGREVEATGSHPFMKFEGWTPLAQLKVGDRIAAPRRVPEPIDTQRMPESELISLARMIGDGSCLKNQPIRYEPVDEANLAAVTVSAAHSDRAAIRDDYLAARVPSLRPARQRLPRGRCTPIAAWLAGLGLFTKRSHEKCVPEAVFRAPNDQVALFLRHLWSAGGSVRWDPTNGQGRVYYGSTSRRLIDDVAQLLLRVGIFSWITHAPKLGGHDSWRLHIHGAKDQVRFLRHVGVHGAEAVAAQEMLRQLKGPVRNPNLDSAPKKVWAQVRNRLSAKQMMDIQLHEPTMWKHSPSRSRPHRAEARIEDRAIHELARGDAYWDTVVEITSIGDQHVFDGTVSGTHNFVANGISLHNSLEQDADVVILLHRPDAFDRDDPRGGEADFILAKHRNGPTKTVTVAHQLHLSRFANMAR

SMILES | EC50 (Streptokinase A) | EC50 (Streptococcus) | EC50 [1] | AC50 [2] | AC50 [3]
O=C(Nc1cccc(NC(=O)c2ccccc2Cl)c1)c1ccc([N+](=O)[O-])o1 | > 150 µM (not active) | 20.4 µM (inconclusive) | 2.84 µM (active) | – | –
COc1ccc(CC2=CC(=O)c3ccccc3C2=O)cc1 | > 150 µM (not active) | 9.74 µM (active) | – | 10.5 µM (active) | 7.49 µM (active)
c1coc(-c2nnc(-c3ccco3)nn2)c1 | – | – | – | 5.23 µM (active) | 5.79 µM (active)
Cn1c(O)c(/C=N/NC(=O)c2cc3ccccc3cc2O)c2ccccc21 | – | – | 2.97 µM (active) | – | –
